In patent US20250206729A1, “DUAL RAF AND TUBULIN INHIBITORS AND METHODS OF USE THEREOF” (Deciphera Pharmaceuticals, LLC, priority 2023, published 2025):
Read-outs that look alike come from different tables or passages of the source.

Columns and labels:
Pa16c cells = experiment: Pa16c cell proliferation assay; format: cell-based; conditions: 67 to 72 h incubation, resazurin; read-out: Pa16c (inhibition of cell proliferation, IC50)
[1] = target: T1, B-Raf kinase (SEQ ID NO: 1) (Homo sapiens, UniProt P15056); experiment: Biochemical assay for B-Raf (coupled pyruvate kinase/lactate dehydrogenase); conditions: 1 mM ATP; read-out: BRAF (inhibition of biochemical activity, IC50)
T1 construct: GST (N); purchased Sigma
T1 sequence (P15056 416-766): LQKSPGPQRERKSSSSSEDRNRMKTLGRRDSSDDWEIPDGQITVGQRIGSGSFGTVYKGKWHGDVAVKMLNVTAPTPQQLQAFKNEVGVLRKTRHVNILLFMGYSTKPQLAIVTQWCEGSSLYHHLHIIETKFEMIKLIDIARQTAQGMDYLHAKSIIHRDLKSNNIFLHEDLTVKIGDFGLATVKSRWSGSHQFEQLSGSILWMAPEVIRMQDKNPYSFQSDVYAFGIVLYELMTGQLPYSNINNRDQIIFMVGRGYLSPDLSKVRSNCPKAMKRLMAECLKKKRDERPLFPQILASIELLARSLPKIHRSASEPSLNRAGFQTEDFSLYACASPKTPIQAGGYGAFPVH

HPAF-II cells = experiment: HPAF-II cell proliferation assay; format: cell-based; conditions: Homo sapiens
HCT-116 cells = experiment: HCT-116 cell proliferation assay; format: cell-based; conditions: Homo sapiens
MiaPaca-2 cells = experiment: MiaPaca-2 cell proliferation assay; format: cell-based; conditions: Homo sapiens, MIA PaCa-2
[2] = target: T2, C-Raf kinase (SEQ ID NO: 2) (Homo sapiens, UniProt P04049, Y340D/Y341D); experiment: Biochemical assay for C-Raf (coupled pyruvate kinase/lactate dehydrogenase); conditions: 1 mM ATP; read-out: CRAF (inhibition of biochemical activity, IC50)
T2 construct: C-Raf residues 306-end; Y340D, Y341D with N-; GST (N); purchased Sigma
T2 sequence (P04049 307-648 Y340D/Y341D): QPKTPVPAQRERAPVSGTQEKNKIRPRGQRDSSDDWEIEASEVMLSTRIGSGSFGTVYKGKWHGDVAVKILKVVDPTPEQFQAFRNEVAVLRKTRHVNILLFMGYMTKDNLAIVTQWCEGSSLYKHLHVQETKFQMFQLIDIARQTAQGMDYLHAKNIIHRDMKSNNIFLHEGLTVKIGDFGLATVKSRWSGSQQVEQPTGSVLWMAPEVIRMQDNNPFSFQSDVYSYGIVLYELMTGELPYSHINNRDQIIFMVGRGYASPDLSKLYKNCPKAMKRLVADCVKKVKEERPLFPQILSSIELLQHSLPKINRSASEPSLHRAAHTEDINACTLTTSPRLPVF

[3] = test system: tubulin polymerization in HCT-116 cells; experiment: Cellular tubulin polymerization assay (HCT-116 cells); format: cell-based; conditions: Table 4; HCT-116 cells; read-out: Tubulin Cellular
Description: HCT-116 cells (catalog #CCL-247) are obtained from the American Type Culture Collect (ATCC, Manassas, VA). Briefly, cells are grown in McCoy's 5A supplemented with 10% characterized fetal bovine serum (Invitrogen, Carlsbad, CA) and 1% Penicillin/Streptomycin/L-Glutamine at 37° C., 5% CO2, and 95% humidity. Cells are expanded until reaching 70-95% confluency at which point they are sub-cultured or harvested for assay use. 450000 cells are added per well in 1500 μL complete growth medium in a tissue culture treated, 12-well plate. Plates are incubated for 18 to 24 h at 37° C., 5% CO2, and 95% humidity. At the end of the incubation, 2000 μL of base culture media is added to each well, followed by a serial dilution of compound. Plates are incubated for an additional 1 h at 37° C., 5% CO2, and 95% humidity. Lysates are generated by the addition of 100 μL Lysis and Microtubule Stabilization Buffer 1 (LMSO1, Cytoskeleton Inc, Denver, CO) supplemented with GTP (BST06, Cytoskeleton Inc), ATP (BSA04, Cytoskeleton Inc), and Protease Inhibitor Cocktail Stock (PIC02, Cytoskeleton Inc). Cells are scraped off wells using a rubber cell scraper and collected in a clean 96-well plate. Lysates are centrifuged at 1000× g, 37° C. for 10 min and supernatant fraction is placed into an additional 96-well plate. The remaining pellet fraction is reconstituted in 100 μL LMS01 buffer and sonicated for 10 min. Pellet and Supernatant fractions are probed for α-tubulin via western blot analysis on the Jess System or equivalent (Bio-techne, Minneapolis, MN). Data is analyzed using Prism software (Graphpad, San Diego, CA) to calculate IC50 values.

[4] = HPAF-II, 115 to 120 h incubation, resazurin, read-out: HPAF-II (inhibition of cell proliferation, IC50)
[5] = HCT-116, 67 to 72 h incubation, resazurin, read-out: HCT-116 (inhibition of cell proliferation, IC50)
[6] = 67-72 h incubation, resazurin, read-out: MiaPaca-2 (inhibition of cell proliferation, IC50)

| SMILES | IC50 [1] [µM] | IC50 (HCT-116 cells; [5]) [µM] | IC50 (MiaPaca-2 cells; [6]) [µM] | IC50 [2] [µM] | IC50 (Pa16c cells) [µM] | IC50 (HPAF-II cells; [4]) [µM] | IC50 [3] [µM] | IC50 (HPAF-II cells; Table 4, mutant KRAS pancreatic cancer cell line, anti-proliferative, read-out: HPAF-II) [µM] | IC50 (HCT-116 cells; Table 4, mutant KRAS colorectal cancer cell line, anti-proliferative, read-out: HCT-116) [µM] | IC50 (MiaPaca-2 cells; Table 4, mutant KRAS pancreatic cancer cell line, anti-proliferative, read-out: MiaPaca-2) [µM] |
| --- | --- | --- | --- | --- | --- | --- | --- | --- | --- | --- |
| Cc1ccc(NC(=O)c2cc(Br)cnn2)cc1-c1cc(OCCO)nc(N2CCOCC2)c1 [Example 78] | 0.1 to 0.5 | 0.5 to 1 | 0.5 to 1 | < 0.1 | 1 to 10 | 1 to 10 |  |  |  |  |
| C[C@@H](NC(=O)c1ncnc(N)c1Cl)c1ncc(C(=O)Nc2cc(C(F)(F)F)c(Cl)cn2)s1 [Tovorafenib, reference compound] |  |  |  |  |  |  | 1 to 10 | 1 to 10 | 1 to 10 | 1 to 10 |
| Cc1ccc(NC(=O)c2cnc(C(F)(F)F)nc2)cc1-c1cc(N[C@H](C)CO)nc(N2CCOCC2)c1 [Example 12] | 0.5 to 1 | 1 to 10 | 0.5 to 1 | 0.1 to 0.5 | 1 to 10 | 1 to 10 |  |  |  |  |
| Cc1ccc(NC(=O)c2cc(Cl)cnn2)cc1-c1cccc(N2CCOCC2)c1 [Example 75] | 1 to 10 | 1 to 10 | 1 to 10 | 1 to 10 | 1 to 10 | 1 to 10 |  |  |  |  |
| Cc1ccc(NC(=O)c2cc(Cl)cnn2)cc1-c1ccnc(N2CCOCC2)n1 [Example 71] | 1 to 10 | 1 to 10 | 0.1 to 0.5 | 1 to 10 | 1 to 10 | 1 to 10 |  |  |  |  |
| Cc1ccc(NC(=O)c2cc(C3CC3)cnn2)cc1-c1cncc(N2CCOCC2)c1 [Example 24] | 0.1 to 0.5 | 0.1 to 0.5 | 0.1 to 0.5 | < 0.1 | 0.1 to 0.5 | 0.1 to 0.5 |  |  |  |  |
| Cc1ccc(NC(=O)c2cc(C3CC3)cnn2)cc1-c1cccc(N2CCOCC2)c1 [Example 46] | 0.1 to 0.5 | 0.1 to 0.5 | 0.5 to 1 | < 0.1 | 0.1 to 0.5 | 0.1 to 0.5 |  |  |  |  |

Further lines, with some results ahead:

| IC50 [1] [µM] | IC50 (HCT-116 cells; [5]) [µM] | IC50 (MiaPaca-2 cells; [6]) [µM] | IC50 [2] [µM] | SMILES | IC50 (Pa16c cells) [µM] | IC50 (HPAF-II cells; [4]) [µM] | IC50 [3] [µM] | IC50 (HPAF-II cells; Table 4, mutant KRAS pancreatic cancer cell line, anti-proliferative, read-out: HPAF-II) [µM] | IC50 (HCT-116 cells; Table 4, mutant KRAS colorectal cancer cell line, anti-proliferative, read-out: HCT-116) [µM] | IC50 (MiaPaca-2 cells; Table 4, mutant KRAS pancreatic cancer cell line, anti-proliferative, read-out: MiaPaca-2) [µM] |
| --- | --- | --- | --- | --- | --- | --- | --- | --- | --- | --- |
| 1 to 10 | 1 to 10 | 1 to 10 | 1 to 10 | Cc1ccc(NC(=O)c2cc(Cl)cnn2)cc1-c1cc(N2CCOCC2)ncn1 [Example 74] | 1 to 10 | 1 to 10 |  |  |  |  |
| < 0.1 | 0.1 to 0.5 | 0.1 to 0.5 | < 0.1 | Cc1ccc(NC(=O)c2cncc(C3CC3)c2)cc1-c1cc(N[C@H](C)CO)nc(N2CCOCC2)c1 [Example 18] | 1 to 10 | 0.1 to 0.5 |  |  |  |  |
| 0.1 to 0.5 | 1 to 10 | 1 to 10 | < 0.1 | Cc1ccc(NC(=O)c2cncc(C3CC3)n2)cc1-c1cc(N[C@H](C)CO)nc(N2CCOCC2)c1 [Example 62] | 1 to 10 | 1 to 10 |  |  |  |  |
| 0.1 to 0.5 | 1 to 10 | 1 to 10 | < 0.1 | Cc1ccc(NC(=O)c2cnc(C(C)C)nc2)cc1-c1cc(N[C@H](C)CO)nc(N2CCOCC2)c1 [Example 54] | 1 to 10 | 1 to 10 |  |  |  |  |
| 1 to 10 | 1 to 10 | 1 to 10 | 1 to 10 | Cc1ccc(NC(=O)c2cnc(Br)nc2)cc1-c1cc(N[C@H](C)CO)nc(N2CCOCC2)c1 [Example 69] | 1 to 10 | 1 to 10 |  |  |  |  |
| 0.1 to 0.5 | < 0.1 | < 0.1 | < 0.1 | Cc1ccc(NC(=O)c2cc(Cl)cnn2)cc1-c1cc(N[C@H](C)CO)nc(N2CCOCC2)c1 [Example 15] | 0.1 to 0.5 | 0.1 to 0.5 |  |  |  |  |
